Test results taken from patent US9936701B2, “Herbicidal compounds” (Syngenta Participations AG, priority 2013, dated 2018).

How the values were obtained:
[1] = system: a variety of test species; test: Pre-emergence herbicidal activity (glasshouse, sprayed one day after sowing, evaluated after 13 days); assay type: in vivo; set-up: key: 5=total damage to plant; 0=no damage to plant; details: application pre-emergence, rate 1000 g/Ha, scale 0-5
Summary of the method: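 Seeds sown in standard soil in pots, sprayed one day later (pre-emergence) with aqueous solution from acetone/water (50:50) formulation with 0.5% Tween 20. Glasshouse at 24/16 °C day/night, 14 h light, 65% humidity, watered twice daily. Damage scored after 13 days, 0 (none) to 5 (total).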

[2] = system: a variety of test species; test: Post-emergence herbicidal activity (glasshouse, sprayed after 8 days cultivation, evaluated after 13 days); assay type: in vivo; set-up: key: 5=total damage to plant; 0=no damage to plant; details: rate 1000 g/Ha, scale 0-5
Summary of the method: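 Pot-grown plants, 8 days after sowing, were sprayed with compound formulated in acetone/water (50:50) with 0.5% Tween 20. Glasshouse conditions 24/16° C day/night, 14 h light, 65% humidity; damage scored after 13 days on a 0 (none) to 5 (total) scale.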

SMILES | Pre-emergence herbicidal damage score, ABUTH [1] | Pre-emergence herbicidal damage score, ALOMY [1] | Pre-emergence herbicidal damage score, AMARE [1] | Pre-emergence herbicidal damage score, ECHCG [1] | Pre-emergence herbicidal damage score, SETFA [1] | Pre-emergence herbicidal damage score, ZEAMX [1] | ABUTH (Abutilon theophrasti) damage score, application post-emergence [2] | ALOMY (Alopecurus myosuroides) damage score, application post-emergence [2] | AMARE (Amaranthus retroflexus) damage score, application post-emergence [2] | ECHCG (Echinochloa crus-galli) damage score, application post-emergence [2] | SETFA (Setaria faberi) damage score, application post-emergence [2] | ZEAMX (Zea mays) damage score, application post-emergence [2]
CC1=C(Cl)C(=O)N(c2noc(C(C)(C)C)c2C#N)C1 [A102] | 5 | 4 | 5 | 4 | 5 | 3 | 5 | 5 | 5 | 5 | 5 | 4
COC1=C(Cl)C(=O)N(c2cc(C(C)(C)C)on2)C1O (stereo not shown) [B1] | 5 | 4 | 5 | 5 | 3 | 4 | 5 | 5 | 5 | 5 | 5 | 5
CNC1=C(Cl)C(=O)N(c2cc(C(C)(C)C)on2)C1O (stereo not shown) [C1] | 3 | 2 | 5 | 4 | 4 | 1 | 5 | 4 | 5 | 5 | 4 | 1
CN(C)C1=C(Cl)C(=O)N(c2cc(C(C)(C)C)on2)C1O (stereo not shown) [C2] | 1 | 1 |  | 2 | 1 | 1 | 5 | 4 | 5 | 5 | 4 | 3
C=C(C)CNC1=C(Cl)C(=O)N(c2cc(C(C)(C)C)on2)C1O (stereo not shown) [C3] | 5 | 3 | 5 | 4 | 3 | 2 | 5 | 4 | 5 | 5 | 5 | 2
CC(C)(C)c1cc(N2C(=O)C(Cl)=C(NCC3CC3)C2O)no1 (stereo not shown) [C4] | 5 | 2 | 5 | 5 | 4 | 3 | 5 | 5 | 5 | 5 | 5 | 4
C#CCNC1=C(Cl)C(=O)N(c2cc(C(C)(C)C)on2)C1O (stereo not shown) [C5, 1-(5-tert-butylisoxazol-3-yl)-4-chloro-2-hydroxy-3-(prop-2-ynylamino)-2H-pyrrol-5-one] | 5 | 3 | 5 | 5 | 4 | 3 | 5 | 5 | 5 | 5 | 5 | 5
CC(C)(C)c1cc(N2C(=O)C(Cl)=C(N)C2O)no1 (stereo not shown) [C6, 3-amino-1-(5-tert-butylisoxazol-3-yl)-4-chloro-2-hydroxy-2H-pyrrol-5-one] | 5 | 4 | 5 | 5 | 4 | 4 | 3 | 5 | 5 | 5 | 5 | 5
CC(C)(C)c1cc(N2C(=O)C(Cl)=C(NC3CCC3)C2O)no1 (stereo not shown) [C9] | 0 | 0 | 3 | 0 | 0 | 0 | 0 | 0 | 2 | 0 | 0 | 0
CC(C)(C)CNC1=C(Cl)C(=O)N(c2cc(C(C)(C)C)on2)C1O (stereo not shown) [C10] | 0 | 0 | 2 | 0 | 0 | 0 | 0 | 0 | 0 | 0 | 0 | 0
COCCNC1=C(Cl)C(=O)N(c2cc(C(C)(C)C)on2)C1O (stereo not shown) [C11] | 4 | 3 | 5 | 4 | 4 | 2 | 5 | 4 | 5 | 5 | 5 | 1
CCOCCNC1=C(Cl)C(=O)N(c2cc(C(C)(C)C)on2)C1O (stereo not shown) [C12] | 4 | 1 | 4 | 2 | 3 | 0 | 5 | 3 | 4 | 4 | 4 | 0
CC(=O)OC1C(N)=C(Cl)C(=O)N1c1cc(C(C)(C)C)on1 (stereo not shown) [C13] | 5 | 4 | 5 | 5 | 4 | 4 | 5 | 5 | 5 | 5 | 5 | 5
COC1=C(C)CN(c2cc(C(C)(C)C)on2)C1=O [D9] |  | 4 | 5 | 4 | 4 |  |  | 5 | 5 | 5 | 5 | 
